Measured values taken from US6395725B1, “Analgesic methods using synthetic catalysts for the dismutation of superoxide radicals” (priority 1997, dated 2002).

Columns and labels:
morphine tolerance = details: literature background; cited from earlier work
[1] = test system: temporomandibular joint dysfunction; details: intra-articular injections, patients with TMJ dysfunction; cited from earlier work
tolerance to morphine = assay: Morphine tolerance in mice, hot plate test; type: in vivo
Protocol: Mice were treated twice a day with either saline (naive) or morphine (s.c., 10 mg/kg) for a period of 4 days to induce tolerance. For comparison, a dose of 10 mg, or less than 0.15 mg/kg every 4 to 10 hours, is a morphine dosage routinely prescribed for the 70 kg. human adult with severe pain. On day 5, all mice received a subcutaneous challenge dose of 3 mg./kg morphine and the level of analgesia was measured 30 minutes later. […] Tolerance to morphine was eliminated in mice that were treated with the superoxide dismutase catalyst SC-72325 administered intraperitoneally.

NC(=NCCC[C@H](N)C(=O)O)N[N+](=O)[O-] [NG-nitroarginine]
morphine tolerance (morphine tolerance): prevent and reverse morphine tolerance

C[C@]12N[C@H](Cc3ccccc31)c1ccccc12 [MK-801]
morphine tolerance (morphine tolerance): prevent morphine tolerance

human Cu/Zn superoxide dismutase: naturally occurring enzyme used intra-articularly as a nonsteroidal anti-inflammatory
Positive response in terms of mandibular movement and pain [1]: 83 % of patients

CN1CC[C@]23c4c5ccc(O)c4O[C@H]2[C@@H](O)C=C[C@H]3[C@H]1C5 [morphine]
analgesic effect from morphine on day 5 (tolerance to morphine; mice treated with morphine s.c. 10 mg/kg twice a day for 4 days, challenge 3 mg/kg, 30 minutes, versus naive mice): decreased analgesic effect | analgesia (tolerance to morphine; naive or non-tolerant mice, s.c. challenge dose 3 mg/kg, hot plate test): 90%
